pIC50: −log10 of the molar value.
Tests used:
laboratory rats = experiment: SIS, scopolamine induced swimming test; assay type: in vivo, rat; details: for reversal of scopolamine-induced swimming hyperactivity: rats given scopolamine
Experimental: In a second screening assay, designated SIS, the scopolamine induced swimming test, the ability of representative compounds of the present invention to reverse the hyperactive swimming behavior of laboratory rats given scopolamine was assessed. In this test, untreated rats will generally swim distances between 20 to 30 meters during a five minute test period. […] The effect of scopolamine is centrally mediated; the ability of a test compound to reverse the hyperactive swimming behavior induced by scopolamine is thus a measure of the central cholinergic activity of the compound.

[1] = system: central muscarinic binding site; experiment: RQNB screening assay: inhibition of radio-labeled quinuclidinyl benzilate (antagonist) binding, rat cerebral cortex tissue; details: R3 is hydrogen, double bond: No; for % Inhib. RQNB: @ 10^-6 M; for pIC50: rat cerebral cortex
Experimental: (§1) The biological activity of compounds of the present invention was evaluated using a number of tests. The activity of compounds of this invention as central muscarinic binding site agonists and antagonists was measured. In the RQNB screening assay, which is described more fully by Mark Watson, et al, J. Pharmocol. Exp. Ther., 237 (2): 411 (1986), rat cerebral cortex tissue was treated with radio-labeled quinuclidinyl benzilate, a known muscarinic binding site antagonist. The % inhibition concentration of test compound required to inhibit 50% of the binding of this muscarinic antagonist was then determined.

[2] = system: central muscarinic binding site; experiment: RCMD screening assay: inhibition of radio-labeled cis-methyldioxolane (agonist) binding, rat cerebral cortex tissue; details: R3 is hydrogen, double bond: No; for % Inhib. RCMD: @ 10^-7 M; for pIC50: rat cerebral cortex
Experimental: as §1
Similarly, in the RCMD screening assay, described more fully by T. W. Vickeroy, et al, J. Pharmacol. Exp. Ther., 229 (3): 747 (1984), rat cerebral cortex tissue was treated with radio-labeled cis-methyldioxolane,a known muscarinic binding site agonist. The concentrations of test compounds required to inhibit 50% of the binding of this muscarinic agonist were then determined.

[3] = system: patients clinically diagnosed as having presenile primary degenerative dementia; details: cited from earlier work
[4] = system: Aged humans and nonhuman primates; details: aged humans and nonhuman primates with decreased cognition; cited from earlier work
[5] = in vivo; cited from earlier work

Compound: CN1[C@@H]2C[C@@H](OC(=O)[C@H](CO)c3ccccc3)C[C@H]1[C@@H]1O[C@@H]12 [scopolamine]
- increase of swimming distance above baseline values (laboratory rats; scopolamine 0.1 mg/kg, five minute test period): 75-125%

Compound: C#CCON=C(C)C1CN2CCC1CC2 (stereo not drawn) [R1 = Methyl, R2 = 2-Propynyl, Ethanone,1-(1-Azabicyclo[2.2.2]oct-3-yl)-, O-2-propynyloxime]
- % Inhib. RQNB [1]: 81%
- % Inhib. RCMD [2]: 78%

Compound: C=CCON=CC1CN2CCC1CC2 (stereo not drawn) [R1 = Hydrogen, R2 = Allyl, 1-Azabicyclo[2.2.2]octane-3-carboxaldehyde, O-2-propenyloxime]
- pIC50 [1]: 6.84
- pIC50 [2]: 6.93

Compound: COC(=O)C1=CCCN(C)C1 [arecoline, methyl ester of 1,2,5,6-tetrahydro-1-methyl-3-pyridinecarboxylic acid]
- test of picture recognition ([3]; double blind study): Significant improvement
- amelioration of symptoms of cognitive disorders ([3]; patients with presenile primary degenerative dementia): effective in ameliorating some of the symptoms of cognitive disorders
- reversal of scopolamine-induced swimming hyperactivity (laboratory rats): can be reversed

Compound: CNC(=O)Oc1ccc2c(c1)[C@]1(C)CCN(C)[C@@H]1N2C [physostigmine]
- reversal of scopolamine-induced swimming hyperactivity (laboratory rats): can be reversed
- memory [4]: improved memory

Compound: Nc1ccncc1N [3,4-diaminopyridine]
- age-related cognitive deficits [5]: ameliorate age-related cognitive deficits

Compound: CON=C(C)C1CN2CCC1CC2 (stereo not drawn) [R1 = Methyl, R2 = Methyl, Ethanone,1-(1-Azabicyclo[2.2.2]oct-3-yl)-, O-methyloxime]
- % Inhib. RQNB [1]: 54%
- % Inhib. RCMD [2]: 90%

Compound: CON=CC1CN2CCC1CC2 (stereo not drawn) [R1 = Hydrogen, R2 = Methyl, 1-Azabicyclo[2.2.2]octane-3-carboxaldehyde, O-methyloxime]
- pIC50 [1]: 5.86
- ED50 (laboratory rats; Rattus norvegicus, PO, laboratory rats, read-out: ED50 required to demonstrate reversal of the scopolamine-induced hyperactive swimming activity): 1.8 mg/kg
- pIC50 [2]: 7.93

Compound: C#CCON=CC1CN2CCC1CC2 (stereo not drawn) [R1 = Hydrogen, R2 = 2-Propynyl, 1-Azabicyclo[2.2.2]octane-3-carboxaldehyde, O-2-propynyloxime]
- pIC50 [1]: 6.46
- pIC50 [2]: 7.57
